# Reference: patent US20020150626A1, “Lipid-protein-sugar particles for delivery of nucleic acids” (priority 2000, published 2002)
# Read-outs that look alike come from different tables or passages of the source.
# What was measured:
# [1] = rat, in vivo
# Description: The presence of functional deficits in the un-injected extremity was used as a measure of the degree of systemically distributed local anesthetic (i.e., toxicity). Thermal latency (the length of time that a rat would leave his paw on the hotplate) was measured in the un-injected leg at predetermined intervals, in rats who received 10% bupivacaine LPSPs or 50% bupivacaine microspheres (FIG. 4).
# [2] = Median lethal dose of bupivacaine (literature); type: in vivo; conditions: in a 350 g rat
# [3] = adult rats; Kohane et al. 1998; cited from earlier work
smiles,measurement,setting,value
"CCCCN1CCCCC1C(=O)Nc1c(C)cccc1C (stereo not drawn) [bupivacaine in solution, bupivacaine]",signs of systemic toxicity (contralateral thermal latency),[1],one of those rats had severe signs of systemic toxicity
same,median lethal dose,[2],10.5 mg
same,median lethal dose,[3],30 ± 5 mg/kg
